According to patent EP0570920A1, “Probe for cannabinoid receptors” (YISSUM RESEARCH AND DEVELOPMENT COMPANY OF THE HEBREW …, priority 1992, dated 1993):
Where two headings read alike, the source gives them in different places.

Columns and labels:
[1] = cited from earlier work
[2] = molecular target: T1, cannabinoid receptor (Rattus norvegicus, UniProt P20272); experiment: Ligand binding assay with [³H]7, centrifugation assay on synaptosomal membrane preparation
T1 construct: a synaptosomal membrane preparation derived from rat whole brain, without brainstem; from tissue; host or cells: rat whole brain without brainstem, synaptosomal membranes
T1 sequence (P20272 whole entry): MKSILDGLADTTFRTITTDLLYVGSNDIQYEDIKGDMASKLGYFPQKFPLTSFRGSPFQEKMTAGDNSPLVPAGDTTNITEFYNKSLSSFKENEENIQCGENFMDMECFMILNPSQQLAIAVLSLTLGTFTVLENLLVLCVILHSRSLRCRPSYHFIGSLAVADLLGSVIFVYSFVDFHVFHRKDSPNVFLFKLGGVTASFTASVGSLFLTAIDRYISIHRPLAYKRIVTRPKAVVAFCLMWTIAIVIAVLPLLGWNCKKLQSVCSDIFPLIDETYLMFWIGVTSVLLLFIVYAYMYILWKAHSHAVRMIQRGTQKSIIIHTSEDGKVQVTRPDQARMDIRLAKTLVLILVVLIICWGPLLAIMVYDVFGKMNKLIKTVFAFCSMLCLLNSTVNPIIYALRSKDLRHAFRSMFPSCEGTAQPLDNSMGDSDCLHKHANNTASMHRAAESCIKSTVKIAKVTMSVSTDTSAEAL

[3] = Discrimination tests / in vivo experiment comparing (3), (7) and Δ¹-THC
[4] = molecular target: T1, cannabinoid receptor; conditions: cited from earlier work
[5] = cited from earlier work; remark: listed apart in the source
[6] = pigeons; cited from earlier work
[7] = in vivo; cited from earlier work
[8] = Solubility of drug in BSA vehicle for binding assay; conditions: at concentrations above 5 uM in 5 mg/ml BSA

7-hydroxyhexahydrocannabinols [Compound 5b]
times more active than Δ¹-THC in discrimination tests ([1]; depending on the animal used (pigeon or rat) and on the timing of measurement): 3-17 times | activity in discrimination tests relative to axial epimer (6b) ([1]; rat, in vivo): considerably more active

CCCCCCC(C)(C)c1cc(O)c2c(c1)OC(C)(C)[C@@H]1CC=C(CO)C[C@@H]21 [Compound 3]
Ki [2]: 0.188 nM | activity in the discrimination tests, (3) versus (7) [3]: essentially equivalent in activity | potency ratio of 3 to 4 for binding to the cannabinoid receptor [4]: circa 1500 | competition for the specific binding of [³H]1 ([4]; membranes from rat brain): completes fully | Ki ([4]; read-out: K, heterologous displacement of [³H]1, membranes from rat brain): 0.234 nM | times more potent than Δ¹-THC in pharmacological tests ([5]; various animal species): 100-800 times | times more potent than Δ¹-THC in drug discrimination [6]: 80 times

CCCCCCC(C)(C)c1cc(O)c2c(c1)OC(C)(C)[C@H]1CC=C(CO)C[C@H]21 [Compound 4]
Ki [2]: 466 nM | fold less potent than its enantiomer compound 3 (HU-210) in binding ([2]; displacement of [³H]7): 2500 fold | potency relative to (3) in in vivo pharmacological tests ([5]; in vivo): several thousand times less potent

CCCCCc1cc(O)c2c(c1)OC(C)(C)C1CCC(C)CC21 (stereo not drawn) [Compound 5a]
cannabimimetic activity relative to axial epimer (6a) [7]: more active

CCCCCCC(C)(C)c1cc(O)c2c(c1)OC(C)(C)C1CCC(CO)CC21 (stereo not drawn) [Compound 7, 7-hydroxy-hexahydrocannabinol-5'-dimethyl heptyl homologue]
times more potent than (3) in the binding experiments [2]: about 4 times | times more potent than Δ¹-THC on binding [2]: about 1000 times | binding potency compared with CP-55940 ([2]; Fig. 1): more potent than CP-55940 | binding capacity ([2]; homologous displacement experiments with [³H]7): 4.41 ± 0.08 pmol/mg protein | Kd ([2]; homologous displacement studies, [³H]7, rat whole brain synaptosomal membranes): 0.045 nM | activity in the discrimination tests, (3) versus (7) [3]: essentially equivalent in activity | times more potent than Δ¹-THC in the in vivo experiment [3]: 125 times

CCCCCc1cc(O)c2c(c1)OC(C)(C)[C@@H]1CCC(C)=C[C@@H]21 [Δ¹-THC, Δ-tetrahydrocannabonol]
solubility in vehicle [8]: partial insolubility
